{"source": "ChEMBL document CHEMBL1157481", "about": "“Microwave-assisted synthesis of 5-aminopyrazol-4-yl ketones and the p38(MAPK) inhibitor RO3201195 for study in Werner syndrome cells” (Bioorg Med Chem Lett, 2008)", "molecular_target": "Mitogen-activated protein kinase 9 (Homo sapiens) (UniProt P45984)", "sequence (P45984 whole entry, looked up)": "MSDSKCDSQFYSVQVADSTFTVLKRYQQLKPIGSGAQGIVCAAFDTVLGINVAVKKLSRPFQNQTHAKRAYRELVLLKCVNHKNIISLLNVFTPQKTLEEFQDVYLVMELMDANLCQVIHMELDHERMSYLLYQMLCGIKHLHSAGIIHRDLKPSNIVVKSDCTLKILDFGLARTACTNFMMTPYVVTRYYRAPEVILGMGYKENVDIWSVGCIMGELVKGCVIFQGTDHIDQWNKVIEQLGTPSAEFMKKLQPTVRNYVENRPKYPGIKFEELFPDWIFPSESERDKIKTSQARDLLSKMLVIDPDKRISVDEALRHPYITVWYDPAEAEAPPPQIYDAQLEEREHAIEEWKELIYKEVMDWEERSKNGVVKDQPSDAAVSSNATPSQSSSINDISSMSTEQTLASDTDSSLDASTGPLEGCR", "test": "Inhibition of JNK2 in hTERT-immortalized human HCA2 cells assessed as c-jun phosphorylation upto 50 uM by ELISA in presence of anisomycin", "type": "cell-based", "note": "Calls of active or inactive are those of the source. The calls are words filed in the database; no cut-off is given here.", "data": [{"smiles": "Nc1c(C(=O)c2cccc(OC[C@@H](O)CO)c2)cnn1-c1ccc(F)cc1", "values": [{"measurement": "Activity", "value": "inactive"}]}]}
